# According to US12569472B2, “PPARγ agonists for treatment of kidney disease” (The Research Institute at Nationwide Children's Hospital, priority 2020, dated 2026):
# Several values for one entry are separate records, joined by “and”; a condition that tells them apart may be missing. Identical values can stand only once.
# Legend:
# [1] = test system: PAN-induced nephropathy in male Wistar rats; assay: PAN-induced nephropathy rat model: proteinuria (urine protein:creatinine ratio); type: in vivo; conditions: Day 11, Pio 10 mg/kg or GQ-16 40 mg/kg daily oral gavage; for Urinary protein/creatinine ratio (UPCr): PAN 50 mg/kg IV
# Description: (§1) This study was approved by the Institution Animal Care and Use Committee at Nationwide Children's Hospital, and their guidelines were followed when performing the experiments. Male Wistar rats were intravenously (IV) injected with puromycin aminonucleoside (PAN) (Sigma-Aldrich, St. Louis, Mo.) (50 mg/kg) on Day 0, which induced proteinuria, while control rats were given IV injections of saline. The rats were treated by oral gavage with Pioglitazone (Alfa Aesar, Tewksbury, Mass.) (10 mg/kg), GQ-16 (40 mg/kg), or a sham vehicle daily. GQ-16 and Pio dosages were determined based on previous studies, and GQ-16 was synthesized as previously described. Amato et al., The Journal of biological chemistry, 287: 28169-28179 (2012). Spot urine and serum were collected, and body weights were recorded throughout the study. […] Kerlin et al., Journal of the American Society of Nephrology: JASN, 26: 3009-3019 (2015). Kidneys were harvested, and the glomeruli were isolated using the sequential sieving method. Agrawal et al., Sci Rep, 6: 24392 (2016). Liver and white adipose tissue (WAT) epididymal fat were collected and flash frozen in liquid nitrogen.
# Urine was collected from rats daily throughout the study and resolved using sodium dodecyl sulfate-polyacrylamide gel electrophoresis (SDS-PAGE) on an 8% gel and stained with Coomassie Brilliant Blue G-250 (Alfa Aesar, Tewksbury, MA) to visualize the albumin bands. Urine protein:creatinine ratio (UPCr) analyses were performed on urine samples from Day 11 at the time of peak proteinuria by Antech Diagnostics GLP (Morrisville, N.C.) to quantify the proteinuria values.
# [2] = test system: PAN-induced nephropathy in male Wistar rats; assay: Serum chemistry (albumin, cholesterol) in PAN-nephrotic rats; type: in vivo, rat; conditions: for mean reduction of PAN-induced hypercholesterolemia / serum total cholesterol: Day 11; for serum albumin: Day 11, Pio 10 mg/kg or GQ-16 40 mg/kg daily
# Description: as §1
# Serum albumin and cholesterol were measured using the ACE® albumin and cholesterol reagents (Alfa Wasserman Diagnostic Technologies, LLC, West Caldwell, NJ) on the Vet Axcel (Alfa Wasserman Diagnostic Technologies, LLC, West Caldwell, NJ) at the Clinical Pathology Services, The Ohio State University's College of Veterinary Medicine, according to the manufacturer's instructions.
# thrombin generation [3] = assay: Thrombin generation assay (TGA) on platelet poor plasma of rats; type: in vivo, rat; conditions: PAN rats, plasma Day 11; for ETP (endogenous thrombin potential): Pio 10 mg/kg or GQ-16 40 mg/kg daily
# Description: as §1
# Thrombin generation assays (TGA) were performed using the Technothrombin® TGA Kit (Technoclone, Vienna, Austria) and Reagent C (RC) Low on PPP samples collected from the rats to determine various parameters such as the endogenous thrombin potential (ETP) and peak thrombin concentration. These assays were performed at least in duplicate on various rat groups (n=4-7/group). Briefly, PPP at 1:1 ratio with buffer was added to black well plates, and RC Low added. Then TGA substrate was added just before reading on a Spectramax M2 Fluorescent Plate Reader (Molecular Devices, San Jose, CA).
# [4] = test system: glomerular gene expression (Nphs1, Nrf2, Trpc6, Pparg); assay: Glomerular gene expression by qRT-PCR; type: in vivo, rat; conditions: PAN rats
# Description: as §1
# (§2) Total RNA was extracted from isolated WAT epididymal fat and liver tissue samples using the RNeasy kit (Qiagen, Germantown, MD), following the manufacturer's instructions. Tissue samples in lysis buffer were placed in lock tubes with stainless-steel disruption beads and lysed at 30.0 Hz for 4 minutes using the Qiagen TissueLyser (Germantown, MD), followed by RNA isolation from the resulting lysate. Total RNA was isolated from glomeruli tissue samples using the mirVana™ Isolation Kit (Invitrogen, Carlsbad, CA), according to the manufacturer's instructions. Yield and purity were calculated for all isolated RNA samples by measuring the absorbance at 260, 280, and 230 nm and the ratios (both) with a spectrophotometer. 500 ng-1 μg of RNA was subjected to DNase (Invitrogen, Carlsbad, CA) digestion at room temperature for 15 minutes, which was then inactivated with 25 mM EDTA at 65° C. for 10 min. RNA was reverse transcribed using the iScript cDNA Synthesis Kit (Bio-Rad, Hercules, CA) according to the manufacturer's instructions. cDNA was used for quantitative reverse transcription-polymerase chain reaction (qRT-PCR) using gene specific and house-keeping primers. SYBR green (Bio-Rad, Hercules, Calif.) qRT-PCR was performed on the Applied Biosystems 7500 Real-Time PCR System. The PCR conditions were 95° C. for 10 minutes, 40× (95° C. for 15 seconds, 60° C. for 1 minute), followed by a melt curve to ensure specific products. The annealing temperature was at 60° C. for all genes except Pgc1a, Pparg, and Cd36 for which 52° C. annealing temperature was used. […]
# [5] = test system: hepatic gene expression (Pcsk9, Abca1, F2, SerpinC1); assay: Hepatic gene expression by qRT-PCR; type: in vivo, rat
# Description: as §1, §2
# [6] = test system: white adipose tissue gene expression (Ap2, Adipoq, Adipsin, Cd36, Pgc1a, Pparg); assay: White adipose tissue (epididymal fat) gene expression by qRT-PCR; type: in vivo, rat; conditions: PAN rats
# Description: as §1
# Total RNA was extracted from isolated WAT epididymal fat and liver tissue samples using the RNeasy kit (Qiagen, Germantown, MD), following the manufacturer's instructions. Tissue samples in lysis buffer were placed in lock tubes with stainless-steel disruption beads and lysed at 30.0 Hz for 4 minutes using the Qiagen TissueLyser (Germantown, MD), followed by RNA isolation from the resulting lysate. Total RNA was isolated from glomeruli tissue samples using the mirVana™ Isolation Kit (Invitrogen, Carlsbad, CA), according to the manufacturer's instructions. Yield and purity were calculated for all isolated RNA samples by measuring the absorbance at 260, 280, and 230 nm and the ratios (both) with a spectrophotometer. 500 ng-1 μg of RNA was subjected to DNase (Invitrogen, Carlsbad, CA) digestion at room temperature for 15 minutes, which was then inactivated with 25 mM EDTA at 65° C. for 10 min. RNA was reverse transcribed using the iScript cDNA Synthesis Kit (Bio-Rad, Hercules, CA) according to the manufacturer's instructions. cDNA was used for quantitative reverse transcription-polymerase chain reaction (qRT-PCR) using gene specific and house-keeping primers. SYBR green (Bio-Rad, Hercules, Calif.) qRT-PCR was performed on the Applied Biosystems 7500 Real-Time PCR System. The PCR conditions were 95° C. for 10 minutes, 40× (95° C. for 15 seconds, 60° C. for 1 minute), followed by a melt curve to ensure specific products. The annealing temperature was at 60° C. for all genes except Pgc1a, Pparg, and Cd36 for which 52° C. annealing temperature was used. The melt curve conditions were 95° C. for 15 seconds, 60° C. for 1 minute, 30 seconds incremental increase to 95° C. and 60° C. for 15 seconds. The ΔΔCt method was used to analyze the results, including normalization to housekeeping genes (Rpl6 44 for glomeruli, Ppia 45, 46 for fat and liver). Pfaffl, M W, Nucleic acids research, 29: e45, 2001. Due to melt curve variation for Trpc6, amplified samples were also resolved on a 2% agarose gel, and densitometry was performed using ImageJ (National Institutes of Health, Bethesda, MD) software. Each gene was tested in triplicates for each tissue on at least three different rats per group.
# P-PPARγ (Ser273) = target: T1, P-PPARγ (Ser273) (Rattus norvegicus, UniProt O88275); assay: Western blot of glomerular P-PPARγ (Ser273) / total PPARγ; type: in vivo; conditions: PAN-nephrotic rats
# T1 construct: To isolate protein from the glomeruli, liver, and fat tissues, the samples were lysed; from tissue; host or cells: glomeruli isolated from kidneys of male Wistar rats
# T1 sequence (O88275 1-505): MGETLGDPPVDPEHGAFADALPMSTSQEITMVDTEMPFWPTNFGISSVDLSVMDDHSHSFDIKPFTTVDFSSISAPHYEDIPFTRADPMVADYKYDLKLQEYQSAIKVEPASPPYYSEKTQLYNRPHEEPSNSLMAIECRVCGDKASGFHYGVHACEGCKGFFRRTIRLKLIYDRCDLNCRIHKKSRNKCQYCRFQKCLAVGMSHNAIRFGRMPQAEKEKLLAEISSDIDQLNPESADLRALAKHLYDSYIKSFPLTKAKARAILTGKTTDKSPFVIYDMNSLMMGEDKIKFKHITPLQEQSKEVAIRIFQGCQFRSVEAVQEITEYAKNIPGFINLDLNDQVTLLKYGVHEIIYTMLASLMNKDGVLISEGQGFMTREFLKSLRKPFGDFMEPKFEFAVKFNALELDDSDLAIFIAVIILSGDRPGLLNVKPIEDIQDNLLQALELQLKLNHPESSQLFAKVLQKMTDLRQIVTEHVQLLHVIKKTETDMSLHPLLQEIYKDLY
# Description: Male Wistar rats were intravenously (IV) injected with puromycin aminonucleoside (PAN) (Sigma-Aldrich, St. Louis, Mo.) (50 mg/kg) on Day 0, which induced proteinuria, while control rats were given IV injections of saline. The rats were treated by oral gavage with Pioglitazone (Alfa Aesar, Tewksbury, Mass.) (10 mg/kg), GQ-16 (40 mg/kg), or a sham vehicle daily. […] Spot urine and serum were collected, and body weights were recorded throughout the study. […] Kidneys were harvested, and the glomeruli were isolated using the sequential sieving method.
# To isolate protein from the glomeruli, liver, and fat tissues, the samples were lysed in a lock tube with RIPA buffer (1M Tris HCl, 0.5M EDTA, 5M NaCl, 10% SDS) containing protease inhibitor cocktail (Thermo Scientific, Waltham, MA) and phosphatase inhibitor cocktail (Alfa Aesar, Tewksbury, MA) and a stainless-steel disruption bead using a Qiagen TissueLyser (Germantown, Md.). Following lysis/homogenization at 30.0 Hz for 4 minutes (liver and fat) or 1 minute (glomeruli), samples were centrifuged for 10 minutes at 4° C. at 12,000 rpm. The supernatant was collected, and the proteins were resolved by SDS-PAGE and transferred to an Immobilon-P polyvinylidene difluoride (PVDF) Transfer Membrane (Millipore Sigma, St. Louis, MO). […] Protein bands were detected by chemiluminescence using the Chemidoc MP Imaging System (Bio-Rad, Hercules, CA). […]
# [7] = Body weight in PAN-nephrotic rats; type: in vivo, rat
# Description: as §1
# PPARγ = target: T2, PPARγ (Homo sapiens, UniProt P37231); conditions: cited from earlier work
# T2 sequence (P37231 1-505): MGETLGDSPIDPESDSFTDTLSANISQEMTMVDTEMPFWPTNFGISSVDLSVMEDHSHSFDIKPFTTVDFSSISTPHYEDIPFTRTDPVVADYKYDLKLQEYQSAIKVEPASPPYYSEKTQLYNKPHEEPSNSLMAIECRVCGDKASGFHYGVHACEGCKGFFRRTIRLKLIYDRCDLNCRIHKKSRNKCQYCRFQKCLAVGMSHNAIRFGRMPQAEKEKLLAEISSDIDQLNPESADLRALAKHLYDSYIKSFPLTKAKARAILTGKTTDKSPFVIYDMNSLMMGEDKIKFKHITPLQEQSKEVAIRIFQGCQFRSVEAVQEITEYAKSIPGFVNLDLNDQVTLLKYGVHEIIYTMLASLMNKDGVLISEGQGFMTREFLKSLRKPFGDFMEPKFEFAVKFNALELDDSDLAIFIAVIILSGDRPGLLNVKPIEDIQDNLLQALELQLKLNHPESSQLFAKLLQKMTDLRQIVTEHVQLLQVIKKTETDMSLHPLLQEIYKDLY
# [8] = target: T3, PPARγ phosphorylation at Ser273 (Homo sapiens, UniProt P37231); conditions: in vitro assay; cited from earlier work
# T3 sequence (P37231 1-505): T2 sequence (P37231 1-505)
# diabetic mice = conditions: in the absence of weight gain and edema; cited from earlier work
# thrombin generation [9] = conditions: previous study; cited from earlier work
# [10] = in vivo; cited from earlier work
Structure (SMILES),Urinary protein/creatinine ratio (UPCr) [1] [mg/mg],mean reduction in PAN-induced proteinuria [1],mean reduction of PAN-induced hypercholesterolemia [2] [%],serum total cholesterol [2] [mg/dL],serum albumin [2] [g/dL],Lag Phase (thrombin generation [3]) [min],Peak Thrombin (thrombin generation [3]) [nM],Velocity Index (thrombin generation [3]) [nM/min],ETP (endogenous thrombin potential) (thrombin generation [3]) [nM·min],WAT Ap2 (Fabp4) expression [6] [fold],body weight (weight reduction of nephrotic rats) [7],also measured
"COc1ccc(Br)cc1/C=C1\SC(=O)N(Cc2ccc(C)cc2)C1=O [GQ-16, 5-(5-bromo-2-methoxy-benzylidine)-3-(4-methyl-benzyl)-thiazolidine-2,4-dione]",8.01 ± 3.54,84% and 81%,86,93.14 ± 13.36,2.64 ± 0.15,9.250 ± 1.532,134.0 ± 35.54,19.91 ± 6.643,2544 ± 489.0,~2.2,maintained,"glomerular Nphs1 expression ([4]; vs PAN): significantly restored; glomerular Nrf2 expression ([4]; vs PAN): marked restoration; glomerular Pparg expression ([4]; not significant (p=0.06)): somewhat increased; glomerular Trpc6 expression ([4]; trend only): reduction; hepatic Pcsk9 expression ([5]; PAN rats (PAN ~30 fold up)): restored to control levels; hepatic F2 expression ([5]; PAN rats, tendency, p=0.07): reduced; hepatic SerpinC1 expression ([5]; PAN rats, tendency, p=0.07): reduced; hepatic Abca1 expression ([5]; PAN rats, trend, p=0.057): ~23 fold; WAT Adipoq expression [6]: induced more robustly; WAT Adipsin (Cfd) expression [6]: induced more robustly; WAT Cd36 expression [6]: no significant differences; WAT Pgc1a expression [6]: trend in increase; WAT Pparg expression [6]: induced; WAT Δ exon 5 splice variant of Pparg, normalized to total Pparg [6]: further reduced; phosphorylation status of PPARγ at Ser273 (glomeruli) (P-PPARγ (Ser273)): unaltered; Ki (PPARγ): 160 nM; receptor phosphorylation at Ser273 [8]: block; insulin sensitivity (diabetic mice): improve"
"CCc1ccc(CCOc2ccc(CC3SC(=O)NC3=O)cc2)nc1 (stereo not shown) [Pio, pioglitazone, reference compound]",13.17 ± 5.51,64%,80,97.86 ± 12.37,2.34 ± 0.14,7.714 ± 0.6974,180.8 ± 29.50,34.67 ± 8.448,3509 ± 427.8,~3.4,did not show any significant difference from control rats,ETP in healthy control rats (thrombin generation [9]): significantly increased; half-life [10]: 8 to 9 h; time of peak (systemic) [10]: 1.5 to 2 h
